For one assay, the target named is T1, human STING WT (R232) (Homo sapiens, UniProt Q86WV6, H232R).
T1 construct: purchased Cisbio 64BDSTGPEG
The assay is described as follows: Human STING HTRF binding assay (competitive, Cisbio 64BDSTGPEG). On the procedure: Binders to human STING WT (R232) were identified using a competitive HTRF assay format (Cisbio 64BDSTGPEG), which uses d2-labeled STING ligand, a 6His (SEQ ID NO: 2) tagged human STING protein, and an anti 6His (SEQ ID NO: 2) Cryptate-labeled antibody. Compounds compete with the STING ligand-d2 and thereby prevents FRET from occurring, which can be measured by an EnVision™ reader (PerkinElmer).
Assay method: Compounds were delivered as 10 mM DMSO solution, serially diluted by an Agilent Bravo Workstation and transferred to the 384 well assay plate (Perkin Elmer #6005359) using a Cybiwell dispenser. Typically, 8 concentrations were used with the highest concentration at 10 μM or 1 μM in the final assay volume followed by ~1:5 dilution steps. DMSO concentration was set to 1% in the final assay volume. The 384 well assay plate contained 20 test compounds and DMSO in column 23 and 24. A cGAMP standard dilution row was prepared according to the manufacturer and transferred to each assay plate. After transfer of compound solution or dilution buffer for negative (high) and positive (low) controls, 5 μl of the human STING protein (cyclic binding domain (residues 138-379) of the WT R232 human version, fused to a 6 His tag (SEQ ID NO: 2) at the Nter part; 1:50 dilution in detection buffer) were dispensed to all wells except of the positive control, which received detection buffer only. Plates were the centrifuged for 20 sec at 1000 rpm. After that, 10 μl of Anti-6His-Cryptate antibody/Sting ligand-d2 mix was added to all wells using a Multidrop combi dispenser, followed by another sec/1000 rpm centrifugation step. After an incubation of the plates for 180 min at room temperature, […] at […] (HTRF ratio) was measured using an Envison Reader (PerkinElmer).
Data evaluation and calculation: For data evaluation and calculation, HTRF ratios were calibrated using the cGAMP standard curve. After that, the measurement of the low control was set as 0% control and the measurement of the high control was set as 100% control. The IC50 values were calculated using the standard 4 parameter logistic regression formula. Calculation: [y=(a−d)/(1+(x/c)^b)+d], a=low value, d=high value; x=conc M; c=IC50 M; b=slope;

In assay [1] the test system is STING inhibition in human whole blood (IFNα2α production). Kind of assay: Human whole blood assay (HWBA): cGAMP-stimulated IFNα2α production. In kind it is cell-based. Conditions: Homo sapiens. The gist of the method: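 Na-citrate human whole blood from ≥3 healthy donors, preincubated 60 min at room temperature with compound (8 concentrations, top 10 μM, ~1:5 steps, 0.1% DMSO), then stimulated with cGAMP and incubated 22 h at 37 °C. Plasma IFNα2α measured by MSD immunoassay; % control versus stimulated/unstimulated wells, IC50 by 4-parameter logistic fit.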

T1 sequence (Q86WV6 138-379 H232R): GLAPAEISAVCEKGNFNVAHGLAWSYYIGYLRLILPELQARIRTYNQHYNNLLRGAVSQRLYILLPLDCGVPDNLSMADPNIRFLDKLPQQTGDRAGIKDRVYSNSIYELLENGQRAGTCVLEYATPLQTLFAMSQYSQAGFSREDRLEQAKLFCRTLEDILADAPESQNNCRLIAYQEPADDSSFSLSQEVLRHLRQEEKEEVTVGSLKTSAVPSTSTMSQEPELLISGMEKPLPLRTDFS

Turning to `Cc1nc2nn(C)cc2cc1-n1nc(-c2cccc3nn(C[C@H](O)c4ccc(F)c(F)c4)cc23)c(C(C)C)c1C` [Example 44, (1R)-1-(3,4-difluorophenyl)-2-[4-(1-{2,6-dimethyl-2H-pyrazolo[3,4-b]pyridin-5-yl}-5-methyl-4-(propan-2-yl)-1H-pyrazol-3-yl)-2H-indazol-2-yl]ethan-1-ol], the values for the IC50 (at human STING WT (R232); in assay [1]) were 16.9 nM and 140 nM, respectively.

For the compound `COCCn1cc2cc(-n3nc(-c4cccc5nn(C[C@H](O)c6ccccc6)cc45)c(C(C)C)c3C)c(C)nc2n1` [Example 16, (1R)-2-(4-{1-[2-(2-methoxyethyl)-6-methyl-2H-pyrazolo[3,4-b]pyridin-5-yl]-5-methyl-4-(propan-2-yl)-1H-pyrazol-3-yl}-2H-indazol-2-yl)-1-phenylethan-1-ol], the IC50 (as a rule, the concentration that inhibits the measured activity by half) on human STING WT (R232) is 6.6 nM; in assay [1] it was 79 nM.

As for `Cc1c(C(C)C)c(-c2cccc3nn(C[C@H](O)c4ccccc4)cc23)nn1-c1cc2cn(C)nc2nc1C1CCOCC1` [Example 73, (1R)-2-(4-{5-methyl-1-[2-methyl-6-(oxan-4-yl)-2H-pyrazolo[3,4-b]pyridin-5-yl]-4-(propan-2-yl)-1H-pyrazol-3-yl}-2H-indazol-2-yl)-1-phenylethan-1-ol], the IC50 at human STING WT (R232) came to 11.4 nM; in assay [1], 440 nM.

As to `Cc1c(C(C)C)c(-c2cccc3nn(C[C@H](O)c4ccccc4)cc23)nn1-c1cc2cn(C)nc2nc1CO` [Example 106, (1R)-2-(4-{1-[6-(hydroxymethyl)-2-methyl-2H-pyrazolo[3,4-b]pyridin-5-yl]-5-methyl-4-(propan-2-yl)-1H-pyrazol-3-yl}-2H-indazol-2-yl)-1-phenylethan-1-ol], the IC50 on human STING WT (R232) came to 3.2 nM; in assay [1], 28 nM.

As to `Cc1c(C(C)C)c(-c2cccc3nn(C[C@H](O)c4ccccc4)cc23)nn1-c1cc2cn(C)nc2nc1C(F)F` [Example 64, (1R)-2-(4-{1-[6-(difluoromethyl)-2-methyl-2H-pyrazolo[3,4-b]pyridin-5-yl]-5-methyl-4-(propan-2-yl)-1H-pyrazol-3-yl}-2H-indazol-2-yl)-1-phenylethan-1-ol], the figures for the IC50 (on human STING WT (R232); in assay [1]) were 7.6 nM and 300 nM, respectively.

With `Cc1nc2nn(CCN(C)C)cc2cc1-n1nc(-c2cccc3nn(C[C@H](O)c4ccccc4)cc23)c(C(C)C)c1C` [Example 39, (1R)-2-[4-(1-{2-[2-(dimethylamino)ethyl]-6-methyl-2H-pyrazolo[3,4-b]pyridin-5-yl}-5-methyl-4-(propan-2-yl)-1H-pyrazol-3-yl)-2H-indazol-2-yl]-1-phenylethan-1-ol], the IC50 stood at 15.4 nM at human STING WT (R232) and 130 nM in assay [1].

Regarding `Cc1c(C(C)C)c(-c2cccc3nn(C[C@H](O)c4ccccc4)cc23)nn1-c1cc2cn(C)nc2nc1C(C)O` (stereo partly drawn) [Example 19, (1R)-2-(4-{1-[6-(1-hydroxyethyl)-2-methyl-2H-pyrazolo[3,4-b]pyridin-5-yl]-5-methyl-4-(propan-2-yl)-1H-pyrazol-3-yl}-2H-indazol-2-yl)-1-phenylethan-1-ol], the IC50 at human STING WT (R232) amounted to 16.1 nM; in assay [1], 82 nM.

Regarding `Cc1c(C2CC2)c(-c2cccc3nn(C[C@H](O)c4ccccc4)cc23)nn1-c1cc2cn(C)nc2nc1C1CC1` [Example 29, (1R)-2-[4-(4-cyclopropyl-1-{6-cyclopropyl-2-methyl-2H-pyrazolo[3,4-b]pyridin-5-yl}-5-methyl-1H-pyrazol-3-yl)-2H-indazol-2-yl]-1-phenylethan-1-ol], the results for the IC50 (at human STING WT (R232); in assay [1]) were 2.8 nM and 110 nM, respectively.

Turning to `Cc1c(C(C)C)c(-c2cccc3nn(C[C@H](O)c4ccccc4)cc23)nn1-c1cc2cn(C)nc2nc1C1CCCN1` (stereo partly drawn) [Example 111, (1R)-2-(4-{5-Methyl-1-[2-methyl-6-(pyrrolidin-2-yl)-2H-pyrazolo[3,4-b]pyridin-5-yl]-4-(propan-2-yl)-1H-pyrazol-3-yl}-2H-indazol-2-yl)-1-phenylethan-1-ol], the IC50 was determined as 25.2 nM on human STING WT (R232) and 750 nM in assay [1].

For `Cc1c(C(C)C)c(-c2cccc3nn(C[C@H](O)c4ccc(OCCN(C)C)cc4)cc23)nn1-c1cc2cn(C)nc2nc1C1CC1` [Example 101], the IC50 was 10.6 nM on human STING WT (R232) and 39 nM in assay [1].

On to `Cc1nc2nn(Cc3cccnc3)cc2cc1-n1nc(-c2cccc3nn(C[C@H](O)c4ccccc4)cc23)c(C(C)C)c1C` [Example 6, (1R)-2-[4-(5-methyl-1-{6-methyl-2-[(pyridin-3-yl)methyl]-2H-pyrazolo[3,4-b]pyridin-5-yl}-4-(propan-2-yl)-1H-pyrazol-3-yl)-2H-indazol-2-yl]-1-phenylethan-1-ol], for which the IC50 on human STING WT (R232) is 14.2 nM; in assay [1] it was 61 nM.

As to `Cc1c(C(C)C)c(-c2cccc3nn(C[C@H](O)c4ccccc4)cc23)nn1-c1cc2cn(C)nc2nc1C(C)(C)C` [Example 113, (1R)-2-[4-(1-{6-tert-butyl-2-methyl-2H-pyrazolo[3,4-b]pyridin-5-yl}-5-methyl-4-(propan-2-yl)-1 H-pyrazol-3-yl)-2H-indazol-2-yl]-1-phenylethan-1-ol], the values for the IC50 (at human STING WT (R232); in assay [1]) were 62.8 nM and 1200 nM, respectively.

As for `Cc1nc2nn(CCCCN3CCN(C)CC3)cc2cc1-n1nc(-c2cccc3nn(C[C@H](O)c4ccccc4)cc23)c(C(C)C)c1C` [Example 45, (1R)-2-[4-(5-methyl-1-{6-methyl-2-[4-(4-methylpiperazin-1-yl)butyl]-2H-pyrazolo[3,4-b]pyridin-5-yl}-4-(propan-2-yl)-1H-pyrazol-3-yl)-2H-indazol-2-yl]-1-phenylethan-1-ol], the IC50 on human STING WT (R232) worked out at 18.1 nM; in assay [1], 140 nM.

As to `Cn1cc2cc(-c3nc(-c4cccc5nn(C[C@H](O)c6ccccc6)cc45)c(C4CC4)n3C)c(OC(F)F)cc2n1` [Example 34, (1R)-2-(4-{5-cyclopropyl-2-[6-(difluoromethoxy)-2-methyl-2H-indazol-5-yl]-1-methyl-1H-imidazol-4-yl}-2H-indazol-2-yl)-1-phenylethan-1-ol], the IC50 on human STING WT (R232) came out at 7.1 nM; in assay [1], 120 nM.

Turning to `Cc1nc2nn(C)cc2cc1-n1nc(-c2cccc3nn(C[C@H](OCC4CC4)c4ccccc4)cc23)c(C(C)C)c1C` [Example 63, 2-[(2R)-2-(cyclopropylmethoxy)-2-phenylethyl]-4-(1-{2,6-dimethyl-2H-pyrazolo[3,4-b]pyridin-5-yl}-5-methyl-4-(propan-2-yl)-1H-pyrazol-3-yl)-2H-indazole], the IC50 at human STING WT (R232) stood at 39.8 nM; in assay [1] it was 300 nM.

In the case of `Cc1nc2nn(CCCN3CCCC3=O)cc2cc1-n1nc(-c2cccc3nn(C[C@H](O)c4ccccc4)cc23)c(C(C)C)c1C` [Example 21, 1-{3-[5-(3-{2-[(2R)-2-hydroxy-2-phenylethyl]-2H-indazol-4-yl}-5-methyl-4-(propan-2-yl)-1H-pyrazol-1-yl)-6-methyl-2H-pyrazolo[3,4-b]pyridin-2-yl]propyl}pyrrolidin-2-one], the values for the IC50 (at human STING WT (R232); in assay [1]) were 4.9 nM and 85 nM, respectively.

Take `Cc1nc2nn(CCCCO)cc2cc1-n1nc(-c2cccc3nn(C[C@H](O)c4ccccc4)cc23)c(C(C)C)c1C` [Example 12, 4-[5-(3-{2-[(2R)-2-hydroxy-2-phenylethyl]-2H-indazol-4-yl}-5-methyl-4-(propan-2-yl)-1H-pyrazol-1-yl)-6-methyl-2H-pyrazolo[3,4-b]pyridin-2-yl]butan-1-ol]: the figures for the IC50 (on human STING WT (R232); in assay [1]) were 4.4 nM and 71 nM, respectively.

In the case of `Cc1nc2nn(CC(F)F)cc2cc1-n1nc(-c2cccc3nn(C[C@H](O)c4ccccc4)cc23)c(C(C)C)c1C` [Example 103, (1R)-2-(4-{1-[2-(2,2-difluoroethyl)-6-methyl-2H-pyrazolo[3,4-b]pyridin-5-yl]-5-methyl-4-(propan-2-yl)-1H-pyrazol-3-yl}-2H-indazol-2-yl)-1-phenylethan-1-ol], the IC50 at human STING WT (R232) was found to be 9.3 nM; in assay [1], 44 nM.

`Cc1c(C(C)C)c(-c2cccc3nn(C[C@H](O)c4ccccc4)cc23)nn1-c1cc2cn(C)nc2[n+]([O-])c1C1CC1` [Example 50, 6-cyclopropyl-5-(3-{2-[(2R)-2-hydroxy-2-phenylethyl]-2H-indazol-4-yl}-5-methyl-4-(propan-2-yl)-1H-pyrazol-1-yl)-2-methyl-2H-pyrazolo[3,4-b]pyridin-7-ium-7-olate]: the concentration for half-maximal inhibition (IC50) at human STING WT (R232) was found to be 16.3 nM; in assay [1] it was 160 nM.

The values are drawn from US20260265244A1, “HETEROCYCLIC COMPOUNDS AS STING ANTAGONISTS” (Boehringer Ingelheim International GmbH, priority 2022, published 2026).
